Patent US20240374612A1, “IMIDAZOBENZO[…] TREATMENT OF COGNITIVE AND MOOD SYMPTOMS” (UWM Research Foundation, Inc., priority 2021, published 2024)
Entries after “also recorded” stand apart in the source; their conditions may differ.

Columns and labels:
[1] = test system: C57/Bl6 mice subjected to chronic restraint stress (working memory deficit); experiment: Y-maze alternation task after chronic restraint stress (CRS); assay type: in vivo; conditions: acute, 30 min before testing, vs CRS vehicle
Description: Young Animals and chronic stress procedure: C57/Bl6 mice, males and females at 8 weeks old and are kept in normal housing conditions (12 h light ON cycle starting at 7 am/water and food ad libitum) for one week. During this week, animals are single housed and handled to reduce the anxiety-like response toward the experimenter. To induce a working memory deficit, mice are subjected to a chronic restraint stress protocol (CRS). They are placed in a 50 mL Falcon® tube, twice a day, for 1 hour during their diurnal cycle. The time of occurrence of the stress is randomized every day to avoid predictability. CRS is not applied on testing days. Y-maze test occurs 15 hours minimum after the last stressor.
Protocol: Mice are first habituated to the Y-maze apparatus and distal cues during 2 consecutive days over a 10 min free exploration session (one session per day). The next day, animals perform a training session consisting in seven successive trials separated by a 30 s inter-trial interval (ITI); during this training session, mice are familiarized with the experimental procedure (opening and closing of the doors and confinement into the goal arms). For each trial, mice remain in the start-box for a 30 s ITI. Then, the door is opened and the mouse is allowed to enter freely one of the two goal arms; the chosen arm is closed and the choice is recorded. After a 30 s confinement period into the chosen arm, the mouse is removed and brought back to the start-box for a second trial identical to the first one and this procedure is repeated over the series of trials.
The same general procedure used in the training session is implemented 24 h later, except that the ITI was lengthened to 90 s. For this experiment, animals are acutely injected i.p. with vehicle or drug, 30 minutes before the beginning of the test. To dissociate memory deficits from an eventual progressive loss of motivation to alternate over the series, an 8th trial is added to the series which is separated from the 7th trial by a shorter ITI (5 s). All animals failing to alternate at the 8th trial are excluded. The mean alternation rate is calculated and is expressed in percentage (number of alternation done by the animal/total number of alternation possible×100)±SEM. The percentage of alternation during the entire task is considered as an index of working memory performance (50% of being a random alternation rate). Factorial ANOVA is applied to the data to reveal differences between groups. If the ANOVA is significant for group effect (p<0.05), Scheffe post-hoc analysis are conducted to identify which groups are different from each other.
Drug preparation and administration: All drugs are diluted in a vehicle solution containing 85% H2O, 14% propylene glycol (Sigma Aldrich) and 1% Tween 80 (Sigma Aldrich). Working solutions are prepared at a concentration of 10 mg/mL and administered i.p. adjusted to the body weight of each animal. Doses used are either 1, 5, 10 or 20 mg/kg. For all Y maze experiments, animals are acutely injected i.p. with vehicle or drug, 30 minutes before the beginning of the test.

[2] = test system: mice (anxiety like behaviors); experiment: Elevated plus maze (EPM); assay type: in vivo; conditions: vs vehicle
Description: The EPM is commonly used in preclinical rodent models to assess anxiety-like behaviors. Briefly, mice are placed in a cross-shaped maze raised at 55 cm from the floor, with 2 open arms facing each other, and 2 closed arms facing each other. During testing, mice are individually placed in the center of the maze facing an open arm and allowed to explore for 10 minutes. Throughout testing, the exploration of each mouse is recorded using a digital camera mounted on the ceiling. After 10 minutes of exploration, the camera is stopped and the mouse is removed from the maze and returned to its home cage. The videos are analyzed using Ethovision XT14 software. Specific parameters considered are: % time spent in the open arms, calculated using ([(total time spent in open arms)/(total time spent in open arms+total time spent in closed arms)]*100) and the number of open arm entries.

[3] = 3 mg/kg i.p., 30 min before testing

| Structure (SMILES) | reversal of CRS-induced reduction of alternation rate (Y-maze) ([1]; 3 mg/kg i.p.) | reversal of CRS-induced reduction of alternation rate (Y-maze) ([1]; 10 mg/kg i.p.) | reversal of CRS-induced reduction of alternation rate (Y-maze) ([1]; 30 mg/kg i.p.) | other results |
| --- | --- | --- | --- | --- |
| CCc1noc(-c2ncn3c2CN=C(c2ccccc2F)c2cc(C4CC4)ccc2-3)n1 [MYM-III-43, 5-(8-cyclopropyl-6-(2-fluorophenyl)-4H-benzo[f]imidazo[1,5-a][1,4]diazepin-3-yl)-3-ethyl-1,2,4-oxadiazole] | reversed | reversed | reversed |  |
| CC(C)c1noc(-c2ncn3c2[C@@H](C)N=C(c2ccccc2F)c2cc(Cl)ccc2-3)n1 [MYM-IV-46, (R)-5-(8-chloro-6-(2-fluorophenyl)-4-methyl-4H-benzo[f]imidazo[1,5-a][1,4]diazepin-3-yl)-3-isopropyl-1,2,4-oxadiazole] | no significant effect | significantly reversed; also recorded: improved alternation rate | trend level effect |  |
| C[C@H]1N=C(c2ccccc2F)c2cc(Cl)ccc2-n2cnc(-c3nc(C4CC4)no3)c21 [MYM-IV-47, (R)-5-(8-chloro-6-(2-fluorophenyl)-4-methyl-4H-benzo[f]imidazo[1,5-a][1,4]diazepin-3-yl)-3-cyclopropyl-1,2,4-oxadiazole] | no significant effect | significantly reversed | significantly reversed |  |
| C#Cc1ccc2c(c1)C(c1ccccc1Cl)=N[C@@H](C)c1c(C(=O)NC)ncn1-2 [FR-III-17, (S)-6-(2-chlorophenyl)-8-ethynyl-N,4-dimethyl-4H-benzo[f]imidazo[1,5-a][1,4]diazepine-3-carboxamide] | significantly reversed |  |  | % distance traveled in the open arms (EPM) [2, 3]: significantly increase; % entries in the open arms (EPM) [2, 3]: significantly increase; % time in the open arms (EPM) [2, 3]: significantly increase; reversal of CRS-induced reduction of alternation rate (Y-maze) ([1]; 0.3 mg/kg i.p.): significantly reversed; reversal of CRS-induced reduction of alternation rate (Y-maze) ([1]; 1 mg/kg i.p.): significantly reversed |
| C[C@H]1N=C(c2ccccc2F)c2cc(-c3ccccc3)ccc2-n2cnc(C(=O)N(C)C)c21 [MYM-III-41, (R)-6-(2-fluorophenyl)-N,N,4-trimethyl-8-phenyl-4H-benzo[f]imidazo[1,5-a][1,4]diazepine-3-carboxamide] |  | reversed |  | reversal of CRS-induced reduction of alternation rate (Y-maze) ([1]; 5 mg/kg i.p.): reversed |
| C#Cc1ccc2c(c1)C(c1ccccc1F)=N[C@H](C)c1c(-c3nc(C4CC4)no3)ncn1-2 [MYM-V-28, (R)-3-cyclopropyl-5-(8-ethynyl-6-(2-fluorophenyl)-4-methyl-4H-benzo[f]imidazo [1,5-a][1,4]diazepin-3-yl)-1,2,4-oxadiazole] |  | significantly reversed; also recorded: significantly improved alternation rate | significantly reversed; also recorded: significantly improved alternation rate |  |
| CCc1noc(-c2ncn3c2[C@@H](C)N=C(c2ccccc2F)c2cc(C4CC4)ccc2-3)n1 [GL-IV-03, (R)-5-(8-Cyclopropyl-6-(2-fluorophenyl)-4-methyl-4H-benzo[f]imidazo[1,5-a][1,4]diazepin-3-yl)-3-ethyl-1,2,4-oxadiazole] | reversed |  | reversed |  |
| Cc1noc(-c2ncn3c2[C@@H](C)N=C(c2ccccc2F)c2cc(Br)ccc2-3)n1 [GL-III-60, (R)-5-(8-Bromo-6˜(2-fluorophenyl)-4-methyl-4H-benzo[f]imidazo[1,5-a][1,4]diazepin-3-yl)-3-methyl-1,2,4-oxadiazole] |  | reversed | reversed |  |
| C#Cc1ccc2c(c1)C(c1ccccn1)=N[C@@H](C)c1c(C(=O)NC)ncn1-2 [MYM-III-29, (S)-8-ethynyl-N,4-dimethyl-6-(pyridin-2-yl)-4H-benzo[f]imidazo[1,5-a][1,4]diazepine-3-carboxamide] | no significant difference between groups | reversed (p<0.05) |  | distance travelled in the open arms (EPM) ([2]; 10 mg/kg i.p.): increasing distance travelled in the open arms |
| C#Cc1ccc2c(c1)C(c1ccccc1Cl)=N[C@@H](C)c1c(-c3nc(C)no3)ncn1-2 [FR-PM-III-57S, (S)-5-(6-(2-chlorophenyl)-8-ethynyl-4-methyl-4H-benzo[f]imidazo[1,5-a][1,4]diazepin-3-yl)-3-methyl-1,2,4-oxadiazole] |  | significantly reversed; also recorded: significantly improved alternation rate | trend level effect |  |
| C#Cc1ccc2c(c1)C(c1ccccc1Cl)=N[C@H](C)c1c(C(=O)N(C)C)ncn1-2 [PM-II-26, (R)-6-(2-chlorophenyl)-8-ethynyl-N,N,4-trimethyl-4H-benzo[f]imidazo[1,5-a][1,4]diazepine-3-carboxamide] |  | reversed (p<0.001) | a trend was observed; also recorded: reversed (trend: p=0.1) |  |
| C#Cc1ccc2c(c1)C(c1ccccc1Cl)=N[C@H](C)c1c(-c3nc(C)no3)ncn1-2 [PM-III-57R, (R)-5-(6-(2-chlorophenyl)-8-ethynyl-4-methyl-4H-benzo[f]imidazo[1,5-a][1,4]diazepin-3-yl)-3-methyl-1,2,4-oxadiazole] |  | significantly reversed; also recorded: significantly improved alternation rate |  |  |
| C#Cc1ccc2c(c1)C(c1ccccc1Cl)=N[C@H](C)c1c(-c3nc(CC)no3)ncn1-2 [PM-II-84E, (R)-5-(6-(2-chlorophenyl)-8-ethynyl-4-methyl-4H-benzo[f]imidazo[1,5-a][1,4]diazepin-3-yl)-3-ethyl-1,2,4-oxadiazole] |  |  | reversed | time spent in the open arms (EPM) ([2]; 10 mg/kg i.p., 30 min before testing): significant effect; also recorded: increasing time spent in the open arms; distance travelled in the open arms (EPM) ([2]; 10 mg/kg i.p.): trend level effect |
